These are literature values, as cited in patent publication US6077513A, “Drug for treatment of bilharziasis (Schistosomiasis)” (priority 1997, dated 2000).

The subject of data set [1] is isolated guinea pig ileum.
The subject of data set [2] is Staphylococcus aureus.

With `CC1=C[C@@H]2[C@@H](CC1)[C@@](C)(O)CC[C@H]2C(C)C` [T-Cadinol], in data set [1], the “smooth muscle relaxing effect” value is listed as “concentration - dependent smooth muscle relaxing effect”. Besides, the antibacterial effect result in data set [2] was “bacterial lysis and subsequent fatal loss of intracellular components”.
